Tests used:
[1] = system: Erysiphe graminis tritici (powdery mildew); experiment: Plant pathology screen (Test 1), powdery mildew on wheat; conditions: Blumeria graminis, in Triticum aestivum, foliar, read-out: POWD MDEW control rating
[2] = system: Botrytis cinerea (gray mold); experiment: Plant pathology screen (Test 1), gray mold on grape berries; conditions: read-out: GRAY MOLD control rating
[3] = system: Pseudoperonospora cubensis (downy mildew); experiment: Plant pathology screen (Test 1), downy mildew on squash; conditions: foliar, read-out: DOWN MDEW control rating
[4] = system: Pyricularia oryzae (rice blast); experiment: whole plant or invertebrate; assay type: in vivo; conditions: foliar, read-out: RICE BLAST control rating
[5] = system: Puccinia recondita tritici (leaf rust); experiment: Plant pathology screen (Test 1), leaf rust on wheat; conditions: in Triticum aestivum, foliar, read-out: LEAF RUST control rating
[6] = system: melon aphids (Aphis gossvpii Glover); experiment: Mite/insect screen, melon aphids; assay type: in vivo; conditions: sprayed leaves
Method in brief: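 Aphids established on squash cotyledons were sprayed to runoff with compound in acetone/alcohol with sulfonate/nonionic emulsifiers, diluted in water to test concentrations. Leaves dried 1 h. Percent mortality scored after standard exposure periods.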

[7] = system: southern armyworm (Spodopetra eridania Cramer); experiment: Mite/insect screen, Southern armyworm; assay type: in vivo; conditions: sprayed leaves
Method in brief: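 Compounds in acetone/alcohol with Toximul emulsifiers, diluted in water, sprayed to runoff on squash leaves at 10 psi and dried 1 h. Excised treated leaves fed to southern armyworm larvae in Petri dishes; percent mortality scored after standard exposure.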

[8] = system: Southern corn rootworm (Diabrotica undecimpuctata howardi Barber); experiment: Mite/insect screen, corn rootworm; assay type: in vivo; conditions: soil
Method in brief: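 Compound in acetone/alcohol with emulsifiers, diluted with water; 1 mL applied to 15 g dry sandy soil holding a presoaked corn seed. After 6–12 h drying, five 2-3 instar larvae added, held at 23° C; percent mortality and phytotoxicity scored after standard exposure periods.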

[9] = system: Twospotted spider mites (Tetranychus urticae Koch); experiment: Mite/insect screen, twospotted spider mites; assay type: in vivo; conditions: sprayed leaves
Method in brief: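 Squash cotyledons infested with mites were sprayed to runoff at 10 psi with compound in acetone/alcohol plus emulsifiers, diluted in water to the stated concentrations. Percent mortality and phytotoxicity were scored after standard exposure periods.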

[10] = Aphis, rate 400 ppm, read-out: MA results (percent mortality)
[11] = Spodoptera eridania, rate 400 ppm, read-out: SAW results (percent mortality)
[12] = Diabrotica, CRW rate 24.00 ppm, read-out: CRW results (percent mortality)
[13] = Tetranychus urticae, rate 400 ppm, read-out: SM results (percent mortality)

| SMILES | pest or weed control at 400 µg/mL [1] | pest or weed control at 400 µg/mL [2] | pest or weed control at 400 µg/mL [3] | pest or weed control at 400 µg/mL [4] | pest or weed control at 400 µg/mL [5] | mortality at 400 ppm [6, 10] | mortality at 400 ppm [7, 11] | mortality at 24 ppm [8, 12] | mortality at 400 ppm [9, 13] | mortality at 200 ppm ([6]; Aphis, rate 200 ppm, read-out: MA results (percent mortality)) | mortality at 200 ppm ([7]; Spodoptera eridania, rate 200 ppm, read-out: SAW results (percent mortality)) | mortality at 12 ppm ([8]; Diabrotica, CRW rate 12.00 ppm, read-out: CRW results (percent mortality)) | mortality at 200 ppm ([9]; Tetranychus urticae, rate 200 ppm, read-out: SM results (percent mortality)) | MA results (percent mortality) ([6]; rate 400 ppm) | SAW results (percent mortality) ([7]; rate 400 ppm) | CRW results (percent mortality) ([8]; CRW rate 24.00 ppm) | SM results (percent mortality) ([9]; rate 400 ppm) |
| --- | --- | --- | --- | --- | --- | --- | --- | --- | --- | --- | --- | --- | --- | --- | --- | --- | --- |
| Cc1oc2ncnc(NCCC3=CCCCC3)c2c1C [Example 72, 5,6-dimethyl-N-[2-(1-cyclohexenyl)ethyl]furo[2,3-d]pyrimidin-4-amine] | 20 to 89% | 0 to 19% | 90 to 100% | 0 to 19% | 90 to 100% | 100% | 60% | 0% | 0% | – | – | – | – | – | – | – | – |
| Cc1oc2ncnc(NCCc3ccc(OCC(F)(F)F)cc3)c2c1C [Example 73, 5,6-dimethyl-N-[2-[4-(2,2,2-trifluoroethoxy)phenyl]ethyl]furo[2,3-d]pyrimidin-4-amine] | 0 to 19% | 0 to 19% | 20 to 89% | 0 to 19% | 20 to 89% | 90% | 100% | 0% | 0% | – | – | – | – | – | – | – | – |
| CCCC(C)(CC)Oc1ccc(CCOc2ncnc3oc(C)c(C)c23)cc1 (centres unmarked) [Example 74, 5,6-dimethyl-4-[2-[4-(1-ethyl-1-methylbutoxy)phenyl]ethoxy]furo[2,3-d]pyrimidine] | 0 to 19% | 0 to 19% | 20 to 89% | 0 to 19% | 0 to 19% | 90% | 0% | 0% | 100% | – | – | – | – | – | – | – | – |
| Cc1oc2ncnc(OCCc3ccc4c(c3)OCCO4)c2c1C [Example 75, 5,6-dimethyl-4-[2-[benzo[b]-1,4-dioxan-6-yl]ethoxy]furo[2,3-d]pyrimidine] | 0 to 19% | 0 to 19% | 20 to 89% | 0 to 19% | 0 to 19% | 0% | 40% | 0% | 0% | – | – | – | – | – | – | – | – |
| Cc1oc2ncnc(OCCc3ccccc3C(F)(F)F)c2c1C [Example 76, 5,6-dimethyl-4-[2-[2(trifluoromethyl)phenyl]ethoxy]furo[2,3-d]pyrimidine] | 90 to 100% | 0 to 19% | 20 to 89% | 0 to 19% | 0 to 19% | 0% | 0% | 60% | 0% | – | – | – | – | – | – | – | – |
| Cc1oc2ncnc(NC(C)(C)Cc3ccccc3)c2c1C [Example 77, 5,6-dimethyl-N-[1,1-dimethyl-2-phenylethyl]furo[2,3-d]pyrimidin-4-amine] | 90 to 100% | 0 to 19% | 90 to 100% | 90 to 100% | 90 to 100% | 80% | 0% | 0% | 90% | 100% | 0% | 0% | 50% | – | – | – | – |
| Cc1coc2ncn(CCc3ccc4ccccc4c3)c(=N)c12 [Example 79, 5-methyl-3-[2-(2-naphthyl)ethyl]furo[2,3-d]pyrimidin-4(3H)-imine] | 0 to 19% | 0 to 19% | 90 to 100% | 20 to 89% | 20 to 89% | 0% | 0% | 0% | 0% | – | – | – | – | – | – | – | – |
| Cc1oc2ncn(CCc3cccc(C(F)(F)F)c3)c(=N)c2c1C [Example 81, 3-[2-[3-(trifluoromethyl)phenyl]ethyl]-5,6-dimethylfuro[2,3-d]pyrimidin-4(3H)-imine] | 20 to 89% | 0 to 19% | 90 to 100% | 90 to 100% | 90 to 100% | 0% | 0% | 0% | 0% | – | – | – | – | 0% | 0% | 0% | 0% |

— US5486516A, “Furopyrimidine derivatives” (DowElanco, priority 1993, dated 1996)
